Results as given in ChEMBL document CHEMBL5150075 (J Med Chem, 2022).
Active and inactive are the calls of the source. The rule behind the calls is not given here.

How the values were obtained:
[1] = target: Tubulin (Homo sapiens) (UniProt P68371+Q9H4B7+P0DPH7+P68366+Q13509+Q71U36+P04350+Q3ZCM7+P07437+P68363+Q9BQE3+Q6PEY2+Q13885+Q9BVA1+Q9BUF5); experiment: Disruption of microtubule network in human DU-145 cells assessed as reduction in alpha tubulin expression by Western blot analysis; format: cell-based; conditions: dose 0.03-0.3 µM
[2] = system: DU-145; experiment: Induction of G2/M phase cell cycle arrest in human DU-145 cells assessed as increase in cyclin B1 expression at 0.03 to 0.3 uM measured after 12 hrs by Western blot analysis; format: functional, cell-based; conditions: dose 0.03-0.3 µM
[3] = system: DU-145; experiment: Induction of apoptosis in human DU-145 cells assessed as live cells at 0.03 uM incubated for 48 hrs by Annexin V-FITC/PI staining based flow cytometry analysis (reference value: 94.94%); format: functional
[4] = system: DU-145; experiment: Induction of apoptosis in human DU-145 cells assessed as early apoptotic cells at 0.03 uM incubated for 48 hrs by Annexin V-FITC/PI staining based flow cytometry analysis (reference value: 1.97%); format: functional
[5] = system: DU-145; experiment: Induction of apoptosis in human DU-145 cells assessed as late apoptotic cells at 0.1 uM incubated for 48 hrs by Annexin V-FITC/PI staining based flow cytometry analysis (reference value: 2.05%); format: functional
[6] = system: DU-145; experiment: Induction of apoptosis in human DU-145 cells assessed as late apoptotic cells at 0.3 uM incubated for 48 hrs by Annexin V-FITC/PI staining based flow cytometry analysis (reference value: 2.05%); format: functional
[7] = system: DU-145; experiment: Induction of apoptosis in human DU-145 cells assessed as dead cells at 0.3 uM incubated for 48 hrs by Annexin V-FITC/PI staining based flow cytometry analysis (reference value: 1.05%); format: functional
[8] = system: DU-145; experiment: Antiproliferative activity against human DU-145 cells assessed as inhibition of cell growth incubated for 24 hrs by real-time cell analysis; format: functional, cell-based; conditions: DU-145, 24 h
[9] = system: DU-145; experiment: Antiproliferative activity against human DU-145 cells assessed as inhibition of cell growth incubated for 48 hrs by real-time cell analysis; format: functional, cell-based; conditions: DU-145, 48 h
[10] = system: DU-145; experiment: Antiproliferative activity against human DU-145 cells assessed as inhibition of cell growth incubated for 72 hrs by real-time cell analysis; format: functional, cell-based; conditions: DU-145, 72 h
[11] = system: DU-145; experiment: Antiproliferative activity against human DU-145 cells assessed as inhibition of cell growth incubated for 96 hrs by real-time cell analysis; format: functional, cell-based; conditions: DU-145, 96 h
[12] = system: BGC-823; experiment: Antiproliferative activity against human BGC-823 cells assessed as inhibition of cell growth incubated for 72 hrs by MTT assay; format: functional, cell-based; conditions: BGC-823, 72 h
[13] = system: HUVEC; experiment: Anti-angiogenesis activity against HUVEC cells assessed as inhibition of cell growth incubated for 72 hrs by MTT assay; format: functional, cell-based; conditions: Homo sapiens
[14] = system: MCF7R; experiment: Antiproliferative activity against paclitaxel-resistant human MCF7R cells assessed as inhibition of cell growth incubated for 72 hrs by MTT assay; format: functional, cell-based; conditions: read-out: IC50
[15] = system: A549; experiment: Antiproliferative activity against paclitaxel-resistant human A549 cells assessed as inhibition of cell growth incubated for 72 hrs by MTT assay; format: functional, cell-based; conditions: A549, 72 h
[16] = Stability in mouse liver microsomes assessed as half life incubated in presence of NADPH by LC-MS/MS analysis; format: ADME, Microsome
[17] = Stability in dog liver microsomes assessed as half life incubated in presence of NADPH by LC-MS/MS analysis; format: ADME, Canis lupus familiaris, Microsome
[18] = Half life in Kunming mouse at 2 mg/kg, iv by LC-MS/MS analysis; format: ADME, organism-based; conditions: in vivo
[19] = Clearance in Kunming mouse at 2 mg/kg, iv by LC-MS/MS analysis; format: ADME, organism-based; conditions: in vivo
[20] = system: DU-145; experiment: Antitumor activity against human DU-145 cells xenografted in BALB/c nude mouse assessed as tumor growth inhibition at 5 mg/kg, po administered once daily and measured twice a week relative to control; format: functional; conditions: read-out: TGI
[21] = Toxicity in BALB/c nude mouse xenografted with human DU-145 cells assessed as reduction in body weight at 10 mg/kg, po administered once daily and measured twice a week; format: organism-based; set-up: scale not given: the % may be the effect or the level left; conditions: in vivo
[22] = system: NCI-H1299; experiment: Antitumor activity against human NCI-H1299 cells xenografted in BALB/c nude mouse assessed as suppression of tumor growth at 10 mg/kg, po administered once daily and measured twice a week relative to control; format: functional
[23] = system: B16-F10; experiment: Antitumor activity against mouse B16-F10 cells implanted in C57BL/6 mouse assessed as tumor growth inhibition at 20 mg/kg, po administered once daily and measured twice a week relative to control; format: functional; conditions: read-out: TGI
[24] = Toxicity in C57BL/6 mouse implanted with mouse B16-F10 cells assessed as […] at 20 mg/kg, po administered once daily and measured twice a week for 14 days; format: organism-based; conditions: in vivo, 336 h, time 14 day
[25] = Mutagenicity in Salmonella typhimurium TA-100 at 0.5 to 500 ug per plate incubated for 72 hrs in presence or absence of S9 fraction by Ames test; format: toxicity, Salmonella enterica subsp. enterica serovar Typhimurium; conditions: in vivo, dose 0.5-500 µg
[26] = target: Sodium channel protein type 5 subunit alpha (Homo sapiens, UniProt Q14524); experiment: Inhibition of human Nav1.5 expressed in CHO cells by manual patch clamp method; format: toxicity, cell-based
[27] = target: L-type calcium channel alpha-1c/beta-2/alpha2delta-1 (Homo sapiens, UniProt P54289+Q08289+Q13936); experiment: Inhibition of human alpha1c/beta2a/alpha2delta1 Cav1.2 expressed in HEK293 cells assessed as effect on calcium flux by FLIPR analysis; format: toxicity, cell-based
[28] = Mutagenicity in Salmonella typhimurium TA-97 at 0.5 to 500 ug per plate incubated for 72 hrs in presence or absence of S9 fraction by Ames test; format: toxicity, Salmonella enterica subsp. enterica serovar Typhimurium; conditions: in vivo, dose 0.5-500 µg
[29] = Mutagenicity in Salmonella typhimurium TA-98 at 0.5 to 500 ug per plate incubated for 72 hrs in presence or absence of S9 fraction by Ames test; format: toxicity, Salmonella enterica subsp. enterica serovar Typhimurium; conditions: in vivo, dose 0.5-500 µg
[30] = Selectivity index, ratio of IC50 for cytotoxicity against African green monkey Vero cells to IC50 for antiproliferative activity against human DU-145 cells; format: toxicity, cell-based; conditions: Vero cells and DU-145 cells, read-out: Ratio IC50
[31] = Toxicity in po dosed ICR mouse assessed as maximum tolerated dose measured on day 14; format: organism-based; conditions: in vivo, time 14 day
[32] = Toxicity in specific pathogen-free Kunming mouse assessed as reduction in body weight at 10 mg/kg, po administered once daily and measured for 7 days; format: organism-based; conditions: in vivo, 168 h, time 7 day
[33] = Toxicity in specific pathogen-free Kunming mouse assessed as pathological changes in colon tissues at 10 mg/kg, po administered once daily and measured after 7 days by hematoxylin and eosin staining based analysis; format: organism-based; conditions: in vivo, 168 h, time 7 day
[34] = system: NCI-H460; experiment: cells; conditions: Homo sapiens, NCI-H460, 72 h
Description: Antiproliferative activity against human NCI-H460 cells assessed as inhibition of cell growth incubated for 72 hrs by MTT assay

[35] = system: MDA-MB-231; experiment: cells; conditions: Homo sapiens, MDA-MB-231, 72 h
[36] = system: HepG2; experiment: cells; conditions: Homo sapiens, HepG2, 72 h
[37] = system: HCT-116; experiment: cells; conditions: Homo sapiens, HCT-116, 72 h
Description: Antiproliferative activity against human HCT-116 cells assessed as inhibition of cell growth incubated for 72 hrs by MTT assay

Sodium channel protein type 5 subunit alpha, sequence (Q14524 whole entry): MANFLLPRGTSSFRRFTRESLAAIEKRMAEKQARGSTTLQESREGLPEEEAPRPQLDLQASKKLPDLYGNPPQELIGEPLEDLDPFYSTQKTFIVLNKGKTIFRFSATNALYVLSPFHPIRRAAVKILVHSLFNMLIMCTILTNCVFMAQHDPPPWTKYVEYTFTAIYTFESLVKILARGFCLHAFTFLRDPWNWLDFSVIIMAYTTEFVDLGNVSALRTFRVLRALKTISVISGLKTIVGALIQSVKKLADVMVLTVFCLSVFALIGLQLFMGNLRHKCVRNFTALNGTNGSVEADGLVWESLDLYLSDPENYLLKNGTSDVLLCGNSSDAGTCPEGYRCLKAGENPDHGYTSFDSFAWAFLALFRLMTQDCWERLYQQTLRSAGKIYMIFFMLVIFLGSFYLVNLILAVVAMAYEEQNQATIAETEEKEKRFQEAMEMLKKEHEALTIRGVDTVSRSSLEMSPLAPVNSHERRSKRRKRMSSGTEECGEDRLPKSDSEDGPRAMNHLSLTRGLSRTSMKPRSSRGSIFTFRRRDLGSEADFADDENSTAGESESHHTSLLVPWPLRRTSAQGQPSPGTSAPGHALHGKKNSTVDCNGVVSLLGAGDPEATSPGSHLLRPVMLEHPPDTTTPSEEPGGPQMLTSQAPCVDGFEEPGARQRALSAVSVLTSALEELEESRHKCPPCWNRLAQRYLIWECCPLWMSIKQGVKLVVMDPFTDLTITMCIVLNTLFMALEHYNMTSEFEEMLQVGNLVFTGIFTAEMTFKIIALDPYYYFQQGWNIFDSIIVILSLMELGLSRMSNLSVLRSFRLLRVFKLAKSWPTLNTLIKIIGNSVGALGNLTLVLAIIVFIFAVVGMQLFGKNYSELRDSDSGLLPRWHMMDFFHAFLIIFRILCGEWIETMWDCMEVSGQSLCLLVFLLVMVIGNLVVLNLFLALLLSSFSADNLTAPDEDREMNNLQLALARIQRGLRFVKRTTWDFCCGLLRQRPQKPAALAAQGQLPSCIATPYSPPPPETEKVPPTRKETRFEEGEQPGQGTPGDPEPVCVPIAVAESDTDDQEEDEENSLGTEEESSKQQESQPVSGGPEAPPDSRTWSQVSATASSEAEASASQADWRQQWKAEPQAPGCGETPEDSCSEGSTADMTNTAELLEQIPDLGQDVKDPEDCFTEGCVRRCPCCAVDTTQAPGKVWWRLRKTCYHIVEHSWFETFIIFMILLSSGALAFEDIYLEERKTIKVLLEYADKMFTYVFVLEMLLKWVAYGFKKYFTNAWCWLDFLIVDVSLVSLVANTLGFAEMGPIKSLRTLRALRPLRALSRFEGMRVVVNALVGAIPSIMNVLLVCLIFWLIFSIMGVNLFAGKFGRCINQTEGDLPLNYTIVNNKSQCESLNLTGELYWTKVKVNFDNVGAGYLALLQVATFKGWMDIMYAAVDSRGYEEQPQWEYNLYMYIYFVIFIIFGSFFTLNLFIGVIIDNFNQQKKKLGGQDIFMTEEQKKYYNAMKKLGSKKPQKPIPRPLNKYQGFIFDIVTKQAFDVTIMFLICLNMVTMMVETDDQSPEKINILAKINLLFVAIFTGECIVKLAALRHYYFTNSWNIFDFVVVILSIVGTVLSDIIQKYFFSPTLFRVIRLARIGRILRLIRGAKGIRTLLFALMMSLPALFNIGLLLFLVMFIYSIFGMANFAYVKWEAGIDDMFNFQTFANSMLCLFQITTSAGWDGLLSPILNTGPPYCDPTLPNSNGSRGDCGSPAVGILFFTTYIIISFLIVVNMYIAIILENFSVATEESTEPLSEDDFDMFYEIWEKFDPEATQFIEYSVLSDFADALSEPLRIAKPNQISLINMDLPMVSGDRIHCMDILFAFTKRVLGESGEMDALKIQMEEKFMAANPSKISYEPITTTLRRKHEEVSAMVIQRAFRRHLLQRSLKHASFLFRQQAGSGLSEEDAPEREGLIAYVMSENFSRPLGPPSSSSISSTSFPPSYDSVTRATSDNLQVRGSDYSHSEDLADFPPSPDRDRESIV

With `Cc1ccc(S(=O)(=O)Nc2cc(C(=O)NCc3ccc(C)nc3)ccc2C)cc1` the Activity [1] was “Active”, the Activity [2] was “Active” and the Activity [3] was 73.88%. The Activity [4] was 13.66%, the Activity [5] was 26.61% and the Activity [6] was 30.32%. The Activity [7] was 5.51%, the IC50 [8] was 10 nM and the IC50 [9] was 10 nM. It also gave an IC50 [10] of 9 nM, an IC50 [11] of 4 nM and an IC50 [12] of 21 nM. It also gave an IC50 [13] of 32 nM, an IC50 [14] of 14 nM and an IC50 [15] of 30 nM. It also gave a half-life [16] of 26 min, a half-life [17] of 132 min and a half-life [18] of 10.8 min. For the same compound, the clearance [19] was 61.5 mL/min/kg, the inhibition in vivo at 5 mg/kg [20] was 37.4% and the Activity [21] was 3.5%. The Activity [22] was 48.8%, the inhibition in vivo at 20 mg/kg [23] was 70.6% and the Activity [24] was “Toxic”. For the same compound, the Activity [25] was “Non-Toxic”, the IC50 [26] was > 30000 nM and the IC50 [27] was > 30000 nM. The Activity [28] was “Non-Toxic”, the Activity [29] was “Non-Toxic” and the selectivity ratio [30] was 4. For the same compound, the MTD at 336 h [31] was > 60 mg/kg, the Activity [32] was “Non-Toxic” and the Activity [33] was “Non-Toxic”. The IC50 [34] was 77 nM, the IC50 [35] was 9 nM and the IC50 [36] was 3 nM. It also gave an IC50 [37] of 4 nM.
